Results: ChEMBL document CHEMBL5321258, “Anticancer evaluation of benzofuran derivatives linked to dipiperazine moiety” (Bioorg Med Chem Lett, 2023)
pIC50: −log10 of the molar value.

Key:
[1] = tested on: A549; assay: Anticancer activity against human A549 cells assessed as inhibition rate at 30 uM by SRB assay relative to control; type: functional
[2] = tested on: A549; assay: Anticancer activity against human A549 cells assessed as inhibition rate at 10 uM by SRB assay relative to control; type: functional
[3] = tested on: HeLa; assay: Anticancer activity against human Hela cells assessed as inhibition rate at 10 uM by SRB assay relative to control; type: functional
[4] = tested on: HeLa; assay: Anticancer activity against human Hela cells assessed as inhibition rate at 30 uM by SRB assay relative to control; type: functional
[5] = tested on: A549; assay: Anticancer activity against human A549 cells assessed as inhibition of cell proliferation by SRB assay; type: functional, cell-based
[6] = tested on: HeLa; assay: Anticancer activity against human HeLa cells assessed as inhibition of cell proliferation by SRB assay; type: functional, cell-based
[7] = tested on: A549; assay: Induction of apoptosis in human A549 cells assessed as early apoptotic cells at 2.5 uM incubated for 24 hrs AnnexinV/ propidium iodide staining based flow cytometry (Rvb= 0.79 %); type: functional
[8] = tested on: A549; assay: Induction of apoptosis in human A549 cells assessed as early apoptotic cells at 5 uM incubated for 24 hrs AnnexinV/ propidium iodide staining based flow cytometry (Rvb= 0.79 %); type: functional
[9] = tested on: A549; assay: Induction of apoptosis in human A549 cells assessed as necrotic cells at 5 uM incubated for 24 hrs AnnexinV/ propidium iodide staining based flow cytometry (Rvb= 0.16 %); type: functional
[10] = tested on: A549; assay: Induction of apoptosis in human A549 cells assessed as viable cells at 5 uM incubated for 24 hrs AnnexinV/ propidium iodide staining based flow cytometry (Rvb= 98.5 %); type: functional; settings: read-out: Activity
[11] = tested on: A549; assay: Induction of apoptosis in human A549 cells assessed as late apoptotic cells at 5 uM incubated for 24 hrs AnnexinV/ propidium iodide staining based flow cytometry (Rvb= 0.54 %); type: functional
[12] = tested on: A549; assay: Induction of apoptosis in human A549 cells assessed as viable cells at 2.5 uM incubated for 24 hrs AnnexinV/ propidium iodide staining based flow cytometry (Rvb= 98.5 %); type: functional; settings: read-out: Activity
[13] = tested on: A549; assay: Induction of apoptosis in human A549 cells assessed as necrotic cells at 2.5 uM incubated for 24 hrs AnnexinV/ propidium iodide staining based flow cytometry (Rvb= 0.16 %); type: functional
[14] = tested on: A549; assay: Induction of apoptosis in human A549 cells assessed as late apoptotic cells at 2.5 uM incubated for 24 hrs AnnexinV/ propidium iodide staining based flow cytometry (Rvb= 0.54 %); type: functional

| Structure (SMILES) | inhibition at 30 µM [1] | inhibition at 10 µM [2] | inhibition at 10 µM [3] | inhibition at 30 µM [4] | pIC50 [5] | pIC50 [6] | Activity [7] | Activity [8] | Activity [9] | viability at 5 µM [10] | Activity [11] | viability at 2.5 µM [12] | Activity [13] | Activity [14] |
| --- | --- | --- | --- | --- | --- | --- | --- | --- | --- | --- | --- | --- | --- | --- |
| C=CC(=O)N1CCN(CC(=O)N2CCN(CCOc3ccc(C(=O)c4cc5ccc(N(CC)CC)cc5o4)cc3)CC2)CC1 | 9.3% | 2.3% | 18.6% | 32.1% | – | – | – | – | – | – | – | – | – | – |
| CCc1ccc(C(=O)N2CCN(CC(=O)N3CCN(CCOc4ccc(C(O)c5cc6ccc(N(CC)CC)cc6o5)cc4)CC3)CC2)cc1 (stereo not drawn) | 73.2% | 47.9% | 36.1% | 75.2% | – | – | – | – | – | – | – | – | – | – |
| CCN(CC)c1ccc2cc(C(O)c3ccc(OCCN4CCN(C(=O)CN5CCN(C(=O)c6cccc(C(F)(F)F)c6)CC5)CC4)cc3)oc2c1 (stereo not drawn) | 81.2% | 65.1% | 43.9% | 69.5% | 5.05 | 4.55 | – | – | – | – | – | – | – | – |
| CCN(CC)c1ccc2cc(C(O)c3ccc(OCCN4CCN(C(=O)CN5CCN(C(=O)c6ccc(F)cc6)CC5)CC4)cc3)oc2c1 (stereo not drawn) | 83.9% | 80.1% | 20.4% | 40.6% | 6.37 | < 4.52 | 5.88% | 28.5% | 9.18% | 23.4% | 39% | 71% | 4.26% | 18.9% |
| CCc1ccc(C(=O)N2CCN(CC(=O)N3CCN(CCOc4ccc(C(=O)c5cc6ccc(N(CC)CC)cc6o5)cc4)CC3)CC2)cc1 | 76.7% | 24.7% | 42.7% | 81.1% | < 4.52 | 4.84 | – | – | – | – | – | – | – | – |
| CCN(CC)c1ccc2cc(C(=O)c3ccc(OCCN4CCN(C(=O)CN5CCN(C(=O)c6ccccc6F)CC5)CC4)cc3)oc2c1 | 76.9% | 66.4% | 31.4% | 56.9% | – | – | – | – | – | – | – | – | – | – |
| C=C(C)C(=O)N1CCN(CC(=O)N2CCN(CCOc3ccc(C(=O)c4cc5ccc(N(CC)CC)cc5o4)cc3)CC2)CC1 | 69.8% | 36.1% | -2.1% | 3.2% | – | – | – | – | – | – | – | – | – | – |
| CCN(CC)c1ccc2cc(C(=O)c3ccc(OCCN4CCN(C(=O)CN5CCN(C(=O)c6ccc(C)cc6)CC5)CC4)cc3)oc2c1 | 62.4% | 54.3% | 61.4% | 90.1% | 5.04 | 5.15 | – | – | – | – | – | – | – | – |
| CCN(CC)c1ccc2cc(C(=O)c3ccc(OCCN4CCN(C(=O)CN5CCN(C(=O)c6ccc(F)cc6)CC5)CC4)cc3)oc2c1 | 45.3% | 29% | 26% | 57% | – | – | – | – | – | – | – | – | – | – |
| CCN(CC)c1ccc2cc(C(=O)c3ccc(OCCN4CCN(C(=O)CN5CCN(C(=O)c6ccc(C(F)(F)F)cc6)CC5)CC4)cc3)oc2c1 | 77.9% | 54.8% | 50.7% | 94.9% | 5.15 | 5.06 | – | – | – | – | – | – | – | – |
| CCN(CC)c1ccc2cc(C(O)c3ccc(OCCN4CCN(C(=O)CN5CCN(C(=O)c6ccccc6C(F)(F)F)CC5)CC4)cc3)oc2c1 (stereo not drawn) | 57.8% | 43.6% | 30.6% | 49.8% | – | – | – | – | – | – | – | – | – | – |
| C=CC(=O)N1CCN(CC(=O)N2CCN(CCOc3ccc(C(O)c4cc5ccc(N(CC)CC)cc5o4)cc3)CC2)CC1 (stereo not drawn) | 64% | 51.9% | 53.8% | 90.7% | 5.04 | 5.16 | – | – | – | – | – | – | – | – |
| CCN(CC)c1ccc2cc(C(O)c3ccc(OCCN4CCN(C(=O)CN5CCN(C(=O)c6ccccc6F)CC5)CC4)cc3)oc2c1 (stereo not drawn) | 75.6% | 55.3% | 79% | 92% | 5.06 | 5.33 | – | – | – | – | – | – | – | – |
| CCN(CC)c1ccc2cc(C(=O)c3ccc(OCCN4CCN(C(=O)CN5CCN(C(=O)c6ccc7ccccc7c6)CC5)CC4)cc3)oc2c1 | 78.8% | 30.9% | 48.7% | 85.3% | 4.67 | 4.95 | – | – | – | – | – | – | – | – |
| CCN(CC)c1ccc2cc(C(=O)c3ccc(OCCN4CCN(C(=O)CN5CCN(C(=O)c6ccccc6C(F)(F)F)CC5)CC4)cc3)oc2c1 | 34.5% | 27.3% | 25.5% | 44.1% | – | – | – | – | – | – | – | – | – | – |
| CCN(CC)c1ccc2cc(C(O)c3ccc(OCCN4CCN(C(=O)CN5CCN(C(=O)c6ccc([N+](=O)[O-])cc6)CC5)CC4)cc3)oc2c1 (stereo not drawn) | 33% | 19.2% | 17.2% | 28.3% | – | – | – | – | – | – | – | – | – | – |
| CCN(CC)c1ccc2cc(C(=O)c3ccc(OCCN4CCN(C(=O)CN5CCN(C(=O)c6cccc(C(F)(F)F)c6)CC5)CC4)cc3)oc2c1 | 57.8% | 49.3% | 27.4% | 70.1% | – | – | – | – | – | – | – | – | – | – |
| CCN(CC)c1ccc2cc(C(O)c3ccc(OCCN4CCN(C(=O)CN5CCN(C(=O)c6ccc(Br)cc6C(F)(F)F)CC5)CC4)cc3)oc2c1 (stereo not drawn) | 72.3% | 69.7% | -1.6% | 9.7% | – | – | – | – | – | – | – | – | – | – |
| CCN(CC)c1ccc2cc(C(=O)c3ccc(OCCN4CCN(C(=O)CN5CCN(C(=O)c6ccc([N+](=O)[O-])cc6)CC5)CC4)cc3)oc2c1 | 22.9% | 16.5% | 17.2% | 24% | – | – | – | – | – | – | – | – | – | – |
| CCN(CC)c1ccc2cc(C(O)c3ccc(OCCN4CCN(C(=O)CN5CCN(C(=O)c6ccc(C)cc6)CC5)CC4)cc3)oc2c1 (stereo not drawn) | 97.2% | 77.9% | 15.9% | 35.9% | 5.81 | < 4.52 | – | – | – | – | – | – | – | – |
| CCN(CC)c1ccc2cc(C(=O)c3ccc(OCCN4CCN(C(=O)CN5CCN(C(=O)c6ccc(OC)cc6)CC5)CC4)cc3)oc2c1 | 85.8% | 65.3% | 27.5% | 64.1% | 5.09 | 4.57 | – | – | – | – | – | – | – | – |
| CCN(CC)c1ccc2cc(C(O)c3ccc(OCCN4CCN(C(=O)CN5CCN(C(=O)c6ccc7ccccc7c6)CC5)CC4)cc3)oc2c1 (stereo not drawn) | 89.2% | 77.9% | 12.1% | 24% | 5.52 | < 4.52 | – | – | – | – | – | – | – | – |
| CCN(CC)c1ccc2cc(C(O)c3ccc(OCCN4CCN(C(=O)CN5CCN(C(=O)c6ccc(OC)cc6)CC5)CC4)cc3)oc2c1 (stereo not drawn) | 63.5% | 55.2% | 42% | 66.7% | – | – | – | – | – | – | – | – | – | – |
| C=C(C)C(=O)N1CCN(CC(=O)N2CCN(CCOc3ccc(C(O)c4cc5ccc(N(CC)CC)cc5o4)cc3)CC2)CC1 (stereo not drawn) | 55.5% | 22.2% | 5.4% | 30.5% | – | – | – | – | – | – | – | – | – | – |
| CCN(CC)c1ccc2cc(C(=O)c3ccc(OCCN4CCN(C(=O)CN5CCN(C(=O)c6ccc(Br)cc6C(F)(F)F)CC5)CC4)cc3)oc2c1 | 53.8% | 41.4% | 33.2% | 62.2% | – | – | – | – | – | – | – | – | – | – |
| CCN(CC)c1ccc2cc(C(=O)c3ccc(OCCN4CCN(C(=O)CN5CCN(C(=O)c6ccc(Cl)cc6)CC5)CC4)cc3)oc2c1 | 78.1% | 22.9% | 47.5% | 89% | 4.60 | 4.83 | – | – | – | – | – | – | – | – |
| CCN(CC)c1ccc2cc(C(O)c3ccc(OCCN4CCN(C(=O)CN5CCN(C(=O)c6ccc(C(F)(F)F)cc6)CC5)CC4)cc3)oc2c1 (stereo not drawn) | 95.2% | 92.5% | 11.3% | 19.8% | 6.92 | < 4.52 | 1.07% | 1.95% | 0.55% | 94% | 3.49% | 97% | 0.25% | 1.73% |
| CCN(CC)c1ccc2cc(C(=O)c3ccc(OCCN4CCN(C(=O)CN5CCN(C(=O)c6cc(Cl)cc(Cl)c6)CC5)CC4)cc3)oc2c1 | 49.3% | 39.8% | 20.1% | 41.7% | – | – | – | – | – | – | – | – | – | – |
| CCN(CC)c1ccc2cc(C(=O)c3ccc(OCCN4CCN(C(=O)CN5CCN(C(=O)c6cc(F)c(F)c(F)c6F)CC5)CC4)cc3)oc2c1 | 61.1% | 20% | 28% | 86.6% | – | – | – | – | – | – | – | – | – | – |
